Measured values from US5965743A, “N-substituted imidazol derivative” (Nippon Soda Co., Ltd., priority 1994, dated 1999).
Read-outs that look alike come from different tables or passages of the source.

Assays:
[1] = test system: biosynthesis of cholesterol; test: Inhibitory effect on biosynthesis of cholesterol in cell-free biosystem; assay type: biochemical, rat (SD-strain); details: cell-free rat liver enzyme system, 90 min, 37° C., pH 7.4; read-out: 50% Inhibitory Concentration (IC50), cholesterol biosynthesis
Protocol: Inhibitory Effect on Biosynthesis of Cholesterol in Cell-free Biosystem
(1) Preparation of Enzyme Reaction System
(§1) The preparation of the enzymatic system for the biosynthesis of cholesterol in rats was carried out according to the method described in Biochimica et Biophysica Acta, Vol.486, pp 70-81, 1977.
(§2) More particularly, SD-strain female rats weighing from […] were fed for 7 to 10 days with a diet containing 2% cholestyramine to enhance their biosynthetic activity of cholesterol. After killed the rats by means of depletion of blood in midnight, the livers thereof were removed and homogenized with a double volume of 0.1 M potassium phosphate buffer solution (pH 7.4) containing 15 mM nicotine amide and 2 mM magnesium chloride by using a loose fitting-type teflon homogenizer. The supernatant obtained by centrifuging the homogenate at 12,000×g for 30 min. was further centrifuged at 105,000×g for 90 min., thereby separating it to the microsome fraction and the supernatant fraction. The supernatant obtained were kept as the fraction resulting in the precipitation in 40-80% ammonium sulfate (hereinafter referred to as "soluble fraction"). Each of the soluble fraction and the microsome fraction were independently adjusted with 0.1 M potassium phosphate buffer solution (pH 7.4) to the volumes of 1 ml/g of liver and 1 ml/3 g of liver, respectively, and were kept and used in the subsequent tests as an enzyme solution for the mixing ratio of 16:1.
(2) Method for Measuring Cholesterol Biosynthesis Activity
(§3) Cholesterol biosynthesis activity was measured according to the method described in Biochimica Biophysica Acta, Vol.486, pp 70-81, 1977. 2 μl dimethylsulfoxide solution of the test compound were added to a solution composed of 50 μl of the enzyme solution prepared in (1) described above, 0.1 M potassium phosphate buffer solution (pH 7.4), 1 mM ATP, 5 mM glucose-1-phosphate, 6 mM glutathione, 6 mM magnesium chloride, 0.04 mM coenzyme A, 0.25 mM NAD, 0.25 mM NADP and 1 mM 2-^14 C-sodium acetate (111 MBq./mmol), and the resultant solution was adjusted to the whole volume of 0.2 ml and then allowed to a reaction for 90 min. at 37° C. while shaking. The reaction was then stopped by adding 1 ml of 15% ethanol solution of potassium hydroxide, and the solution was then heated for 1 hour at 75° C. After extracted unsaponificated products with hexane from the solution, the solution was then condensed and dried to the hard state and subsequently dissolved in small volume of a mixture of chloroform and methanol (mixing ratio; 1:2). The resultant chloroform-methanol solution was spotted on a pre-coated silica gel TLC plate, then developed with a developer composed of benzene and ethyl acetate (mixing ratio; 9:1). The cholesterol spot was then taken out from the plate, and the radient activity of the spot was measured by using a liquid scintillation counter. Based on the radio-activity measured, mthe 50% inhibitory concentration (IC50) of the compounds of the present invention were determined.

[2] = target: T1, squalene-2,3-oxide cyclase (Rattus norvegicus, UniProt P48450); test: Sterol amount synthesized in cell-free cholesterol biosynthesis system (squalene-2,3-epoxide accumulation); assay type: biochemical, rat (SD-strain); details: average of 6 results
T1 sequence (P48450 2-733): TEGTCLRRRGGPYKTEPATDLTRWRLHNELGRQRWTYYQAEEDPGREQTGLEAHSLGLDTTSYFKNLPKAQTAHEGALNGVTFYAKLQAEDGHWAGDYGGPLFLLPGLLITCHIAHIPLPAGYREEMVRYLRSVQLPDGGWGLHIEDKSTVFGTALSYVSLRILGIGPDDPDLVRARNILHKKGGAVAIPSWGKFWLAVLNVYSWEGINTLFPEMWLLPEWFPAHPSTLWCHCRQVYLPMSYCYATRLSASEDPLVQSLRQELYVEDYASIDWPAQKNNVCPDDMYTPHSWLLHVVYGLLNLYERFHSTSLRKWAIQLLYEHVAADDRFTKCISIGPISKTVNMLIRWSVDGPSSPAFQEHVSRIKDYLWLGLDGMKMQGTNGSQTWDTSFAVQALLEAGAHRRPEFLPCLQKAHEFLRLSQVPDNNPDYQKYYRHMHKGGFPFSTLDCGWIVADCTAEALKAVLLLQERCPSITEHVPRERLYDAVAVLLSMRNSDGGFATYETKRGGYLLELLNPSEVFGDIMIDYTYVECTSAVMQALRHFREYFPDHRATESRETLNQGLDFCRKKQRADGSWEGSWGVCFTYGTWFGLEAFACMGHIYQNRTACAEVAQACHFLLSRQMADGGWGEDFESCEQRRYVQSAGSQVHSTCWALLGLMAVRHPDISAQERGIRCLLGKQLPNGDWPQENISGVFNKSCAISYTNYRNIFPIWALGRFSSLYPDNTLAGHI
Protocol: as §1, §2, §3
On the other hand, after determining the position of ^14 C-squalene-2,3-epoxide on the TLC, which was produced due to the action of AMO 1618 (Calbiochem, USA), a squalene-2,3-oxidecyclase inhibitor, the spot containing squalene-2,3-epoxide […] was taken out and the radio-activity thereof was then determined by using a liquid scintillation counter.

[3] = test system: Triton WR-1339-Induced Hyperlipemia Mice; test: Effect on serum lipid in Triton WR-1339-induced hyperlipemia mice; assay type: in vivo, mouse (Crj:ICR-strain); details: Mus musculus, po (3 x 33.3 mg/kg), average of 10 animals, 24 hours
Protocol: For this test, Crj:ICR-strain male mice aged 7-9 weeks were provided. […] After 24 hours, blood sampling was performed for each mouse from the abdominal aorta under anesthesia with ether, and the collected blood were placed into plastic test tubes being placed with a blood separating agent beforehand, then after 30 min. or 1 hour, the blood sampled was centrifuged at 10,000 rpm to obtain the serum. Total cholesterol value, HDL cholesterol value and total triglyceride value in the serum were respectively measured by using the measuring kits and automatic biochemical analyser.

[4] = 1 μM, control 2125 (Test 1, 1-17), 953 (Test 2, 2-47)
[5] = 1 μM, control 15448 (Test 1, 1-17), 9453 (Test 2, 2-47)
[6] = 1 μM, control 85102 (Test 1, 1-17), 53622 (Test 2, 2-47)
[7] = 3 μM, control 2125 (Test 1, 1-17), 953 (Test 2, 2-47)
[8] = 3 μM, control 15448 (Test 1, 1-17), 9453 (Test 2, 2-47)
[9] = 3 μM, control 85102 (Test 1, 1-17), 53622 (Test 2, 2-47)
[10] = 10 μM, control 2125 (Test 1, 1-17), 953 (Test 2, 2-47)
[11] = 10 μM, control 15448 (Test 1, 1-17), 9453 (Test 2, 2-47)
[12] = 10 μM, control 85102 (Test 1, 1-17), 53622 (Test 2, 2-47)
[13] = 30 μM, control 2125 (Test 1, 1-17), 953 (Test 2, 2-47)
[14] = 30 μM, control 15448 (Test 1, 1-17), 9453 (Test 2, 2-47)
[15] = 30 μM, control 85102 (Test 1, 1-17), 53622 (Test 2, 2-47)
[16] = read-out: % Change of Serum Lipid to Control Group: HDL Cholesterole
[17] = read-out: % Change of Serum Lipid to Control Group: Total Cholesterole
[18] = read-out: % Change of Serum Lipid to Control Group: Total glyceride

Row | SMILES | IC50 [1] [nM] | change in vivo at 100 mg/kg [3, 16] [%] | change in vivo at 100 mg/kg [3, 17] [%] | change in vivo at 100 mg/kg [3, 18] [%] | also measured
1 | Cc1cc(OC(=O)N2CCCCC2)c(C(C)C)cc1[N+](C)(C)C [AMO 1618, reference compound] | 140000 |  |  |  | 
2 | c1ccc(CCCNc2ccc(-n3ccnc3)cc2)cc1 [Compound 1-17] | 1500 | 78 | -29 | -46 | Sterol Amount Synthesized: Squalene-2,3-epoxide [2, 4]: 3238 dpm/90min/Assay; Sterol Amount Synthesized: Cholesterol [2, 5]: 15297 dpm/90min/Assay; Sterol Amount Synthesized: Total Amount Synthesized [2, 6]: 72069 dpm/90min/Assay; Sterol Amount Synthesized: Squalene-2,3-epoxide [2, 7]: 2102 dpm/90min/Assay; Sterol Amount Synthesized: Cholesterol [2, 8]: 8938 dpm/90min/Assay; Sterol Amount Synthesized: Total Amount Synthesized [2, 9]: 82446 dpm/90min/Assay; Sterol Amount Synthesized: Squalene-2,3-epoxide [2, 10]: 7382 dpm/90min/Assay; Sterol Amount Synthesized: Cholesterol [2, 11]: 6364 dpm/90min/Assay; Sterol Amount Synthesized: Total Amount Synthesized [2, 12]: 79733 dpm/90min/Assay; Sterol Amount Synthesized: Squalene-2,3-epoxide [2, 13]: 10914 dpm/90min/Assay; Sterol Amount Synthesized: Cholesterol [2, 14]: 3558 dpm/90min/Assay; Sterol Amount Synthesized: Total Amount Synthesized [2, 15]: 95990 dpm/90min/Assay; Sterol Amount Synthesized: Squalene-2,3-epoxide ([2]; 100 μM, control 2125 (Test 1)): 12736 dpm/90min/Assay; Sterol Amount Synthesized: Cholesterol ([2]; 100 μM, control 15448 (Test 1)): 1830 dpm/90min/Assay; Sterol Amount Synthesized: Total Amount Synthesized ([2]; 100 μM, control 85102 (Test 1)): 77489 dpm/90min/Assay
3 | c1ccc(CCCCNc2ccc(-n3ccnc3)cc2)cc1 [Compound 1-20] | 700 |  |  |  | 
4 | c1ccc(CCCCCCNc2ccc(-n3ccnc3)cc2)cc1 [Compound 1-24] | 2600 |  |  |  | 
5 | CN(CCCc1ccccc1)c1ccc(-n2ccnc2)cc1 [Compound 1-27] | 1800 | 65 | -14 | -22 | 
6 | c1ccc(OCCCNc2ccc(-n3ccnc3)cc2)cc1 [Compound 1-33] | 6200 |  |  |  | 
7 | c1ccc(OCCCCNc2ccc(-n3ccnc3)cc2)cc1 [Compound 1-35] | 2200 |  |  |  | 
8 | c1ccc(CCCOc2ccc(-n3ccnc3)cc2)cc1 [Compound 1-47] | 7000 | 46 | -16 | -23 | 
9 | CC(CCOc1ccc(-n2ccnc2)cc1)c1ccccc1 (stereo not drawn) [Compound 1-48] | 1400 |  |  |  | 
10 | c1ccc(CCCCOc2ccc(-n3ccnc3)cc2)cc1 [Compound 1-49, 1-[4-(4-phenylbutoxy)phenyl]imidazole] | 680 |  |  |  | 
11 | c1ccc(CCCCCCOc2ccc(-n3ccnc3)cc2)cc1 [Compound 1-53] | 1700 |  |  |  | 
12 | c1ccc(OCCCOc2ccc(-n3ccnc3)cc2)cc1 [Compound 1-60] | 4800 | 52 | -22 | -37 | 
13 | c1ccc(OCCCCOc2ccc(-n3ccnc3)cc2)cc1 [Compound 1-61] | 4000 |  |  |  | 
14 | CCCCCCCCCCNc1ccc(-n2ccnc2)cc1 [Compound 1-115] | 10000 | 22 | -17 | -25 | 
15 | CCCCCCCCCCOc1ccc(-n2ccnc2)cc1 [Compound 1-119] | 9000 |  |  |  | 
16 | c1ccc(CCCOc2ccc(Cn3ccnc3)cc2)cc1 [Compound 2-47, 1-[4-(3-phenylpropyloxy)benzyl]imidazole] | 1400 |  |  |  | Sterol Amount Synthesized: Squalene-2,3-epoxide [2, 4]: 221 dpm/90min/Assay; Sterol Amount Synthesized: Cholesterol [2, 5]: 5289 dpm/90min/Assay; Sterol Amount Synthesized: Total Amount Synthesized [2, 6]: 53803 dpm/90min/Assay; Sterol Amount Synthesized: Squalene-2,3-epoxide [2, 7]: 1280 dpm/90min/Assay; Sterol Amount Synthesized: Cholesterol [2, 8]: 6333 dpm/90min/Assay; Sterol Amount Synthesized: Total Amount Synthesized [2, 9]: 56335 dpm/90min/Assay; Sterol Amount Synthesized: Squalene-2,3-epoxide [2, 10]: 1836 dpm/90min/Assay; Sterol Amount Synthesized: Cholesterol [2, 11]: 4210 dpm/90min/Assay; Sterol Amount Synthesized: Total Amount Synthesized [2, 12]: 72823 dpm/90min/Assay; Sterol Amount Synthesized: Squalene-2,3-epoxide [2, 13]: 7126 dpm/90min/Assay; Sterol Amount Synthesized: Cholesterol [2, 14]: 3787 dpm/90min/Assay; Sterol Amount Synthesized: Total Amount Synthesized [2, 15]: 63661 dpm/90min/Assay
17 | c1ccc(CCCCOc2ccc(Cn3ccnc3)cc2)cc1 [Compound 2-49, 1-[4-(4-phenylbutyloxy)benzyl]imidazole] | 1200 | 20 | -16 | -10 | 
18 | c1ccc(OCCOc2ccc(Cn3ccnc3)cc2)cc1 [Compound 2-59, 1-[4-(2-phenoxyethyloxy)benzyl]imidazole] | 21000 |  |  |  | 
19 | c1ccc(OCCCOc2ccc(Cn3ccnc3)cc2)cc1 [Compound 2-60] | 10000 |  |  |  | 
20 | O=S(=O)(CCCOc1ccc(Cn2ccnc2)cc1)c1ccccc1 [Compound 2-68, 1-[4-(3-benzenesulfonylpropyloxy)benzyl]imidazole] | < 1000 |  |  |  | 
21 | Cc1ccc(OCCCOc2ccc(Cn3ccnc3)cc2)cc1 [Compound 2-95, 1-{4-[3-(4-tolyloxy)propyloxy]benzyl} imidazole] | 2400 |  |  |  | 
22 | CC[C@H](C)C(=O)O[C@H]1C[C@H](O)C=C2C=C[C@H](C)[C@H](CC[C@@H](O)C[C@@H](O)CC(=O)O)[C@H]21 [Pravastatin, reference compound] |  | -8 | -16 | -28 | 
